Values belong to the compound of their own block, whether it stands above or below them.
Experiments:
[1] = target: T1, recombinant human KDM4A (Homo sapiens, UniProt O75164); test: 14CO2 capture enzymatic assay (decarboxylation of [1-14C] αKG), KDM4A; type: biochemical; settings: 10 μM [1-14C] αKG, 90 μM non-labeled αKG, 50 μM peptide substrate, 37° C., 1 hour, final 1% DMSO
T1 construct: made in house
T1 sequence (O75164 1-359 limits assumed): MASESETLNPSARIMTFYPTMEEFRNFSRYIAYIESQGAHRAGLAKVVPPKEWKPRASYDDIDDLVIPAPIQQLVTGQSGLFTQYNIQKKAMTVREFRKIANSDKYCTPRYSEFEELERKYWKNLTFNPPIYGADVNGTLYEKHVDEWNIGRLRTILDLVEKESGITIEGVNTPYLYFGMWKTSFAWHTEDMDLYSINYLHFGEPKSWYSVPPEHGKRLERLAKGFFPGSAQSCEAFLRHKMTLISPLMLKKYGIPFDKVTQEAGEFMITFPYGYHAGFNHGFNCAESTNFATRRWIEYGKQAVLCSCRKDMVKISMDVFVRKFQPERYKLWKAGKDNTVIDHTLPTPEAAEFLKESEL
Procedure, shortened: (§1)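 Truncated recombinant human KDM5B (H3K4me3 peptide) or KDM4A (H3K9me3 peptide), 50 μM peptide, with 10 μM [1-14C]αKG plus 90 μM unlabeled αKG, 10 μM Fe(SO4), 2 mM ascorbate in pH 7.4 HEPES, 1 h at 37 °C, 1% DMSO. Released 14CO2 trapped on Ba(OH)2 filter; IC50 by non-linear fit.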

[2] = target: T2, recombinant human KDM5B (Homo sapiens, UniProt Q9UGL1); test: 14CO2 capture enzymatic assay (decarboxylation of [1-14C] αKG), KDM5B; type: biochemical; settings: 10 μM [1-14C] αKG, 90 μM non-labeled αKG, 50 μM peptide substrate, 37° C., 1 hour, final 1% DMSO
T2 sequence (Q9UGL1 374-755 limits assumed): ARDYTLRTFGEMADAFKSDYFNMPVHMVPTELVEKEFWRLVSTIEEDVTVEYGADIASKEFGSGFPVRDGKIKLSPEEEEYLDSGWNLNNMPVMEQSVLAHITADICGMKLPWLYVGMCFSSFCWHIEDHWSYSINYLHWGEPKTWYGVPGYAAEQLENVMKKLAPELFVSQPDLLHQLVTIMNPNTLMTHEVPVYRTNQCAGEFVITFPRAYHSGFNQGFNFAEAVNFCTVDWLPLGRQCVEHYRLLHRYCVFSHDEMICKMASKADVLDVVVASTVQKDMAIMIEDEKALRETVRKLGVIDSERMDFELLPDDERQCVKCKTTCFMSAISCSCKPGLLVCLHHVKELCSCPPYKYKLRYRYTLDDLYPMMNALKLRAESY
Procedure, shortened: as §1

Compound: Cc1c(-c2cc(C#N)c(O)c(C(=O)CCC(=O)O)n2)cccc1C(F)(F)F [Example 95, 4-[4-Cyano-3-hydroxy-6-(2-methyl-3-trifluoromethyl-phenyl)-pyridin-2-yl]-4-oxo-butyric acid]
IC50 [1]: > 40000 nM
IC50 [2]: 350 nM

Compound: Cc1cc(C(F)(F)F)ccc1-c1cc(C#N)c(O)c(C(=O)CCC(=O)O)n1 [Example 96, 4-[4-Cyano-3-hydroxy-6-(2-methyl-4-trifluoromethyl-phenyl)-pyridin-2-yl]-4-oxo-butyric acid]
IC50 [1]: > 40000 nM
IC50 [2]: 310 nM

Compound: Cc1ccc(C(F)(F)F)cc1-c1cc(C#N)c(O)c(C(=O)CCC(=O)O)n1 [Example 97, 4-[4-Cyano-3-hydroxy-6-(2-methyl-5-trifluoromethyl-phenyl)-pyridin-2-yl]-4-oxo-butyric acid]
IC50 [1]: > 40000 nM
IC50 [2]: 300 nM

Compound: Cc1c(C#N)cccc1-c1cc(C#N)c(O)c(C(=O)CCC(=O)O)n1 [Example 98, 4-[4-Cyano-6-(3-cyano-2-methyl-phenyl)-3-hydroxy-pyridin-2-yl]-4-oxo-butyric acid]
IC50 [1]: > 40000 nM
IC50 [2]: 300 nM

Compound: Cc1cc(C#N)ccc1-c1cc(C#N)c(O)c(C(=O)CCC(=O)O)n1 [Example 99, 4-[4-Cyano-6-(4-cyano-2-methyl-phenyl)-3-hydroxy-pyridin-2-yl]-4-oxo-butyric acid]
IC50 [1]: > 40000 nM
IC50 [2]: 270 nM

Compound: N#Cc1cc(-c2ccccc2)cc(C(=O)CCC(=O)O)c1O [Example 104, 4-(5-Cyano-4-hydroxy-biphenyl-3-yl)-4-oxo-butyric acid]
IC50 [1]: > 40000 nM
IC50 [2]: 460 nM

Compound: N#Cc1ccc(C(F)(F)F)cc1-c1cc(C#N)c(O)c(C(=O)CCC(=O)O)n1 [Example 105, 4-[4-Cyano-6-(2-cyano-5-trifluoromethyl-phenyl)-3-hydroxy-pyridin-2-yl]-4-oxo-butyric acid]
IC50 [1]: > 40000 nM
IC50 [2]: 420 nM

Compound: N#Cc1cc(-c2ccc(F)c3ccccc23)nc(C(=O)CCC(=O)O)c1O [Example 109, 4-[4-Cyano-6-(4-fluoro-naphthalen-1-yl)-3-hydroxy-pyridin-2-yl]-4-oxo-butyric acid]
IC50 [1]: > 40000 nM
IC50 [2]: 250 nM

Compound: N#Cc1cc(-c2ccc(-c3ccccc3)c3ccccc23)nc(C(=O)CCC(=O)O)c1O [Example 111, 4-[4-Cyano-3-hydroxy-6-(4-phenyl-naphthalen-1-yl)-pyridin-2-yl]-4-oxo-butyric acid]
IC50 [1]: > 40000 nM
IC50 [2]: 320 nM

Compound: N#Cc1cc(-c2cccc3ncccc23)nc(C(=O)CCC(=O)O)c1O [Example 112, 4-(4-Cyano-3-hydroxy-6-quinolin-5-yl-pyridin-2-yl)-4-oxo-butyric acid]
IC50 [1]: > 40000 nM
IC50 [2]: 390 nM

Compound: Cc1ccc(-c2cc(C#N)c(O)c(C(=O)CCC(=O)O)n2)c2ccccc12 [Example 113, 4-[4-Cyano-3-hydroxy-6-(4-methyl-naphthalen-1-yl)-pyridin-2-yl]-4-oxo-butyric acid]
IC50 [1]: > 40000 nM
IC50 [2]: 230 nM

Compound: N#Cc1cc(-c2cccc3cccnc23)nc(C(=O)CCC(=O)O)c1O [Example 116, 4-(4-Cyano-3-hydroxy-6-quinolin-8-yl-pyridin-2-yl)-4-oxo-butyric acid]
IC50 [1]: > 40000 nM
IC50 [2]: 100 nM

Compound: N#Cc1cc(Cc2ccccc2)cc(C(=O)CCC(=O)O)c1O [Example 117, 4-(5-Benzyl-3-cyano-2-hydroxy-phenyl)-4-oxo-butyric acid]
IC50 [1]: > 40000 nM
IC50 [2]: 280 nM

Compound: N#Cc1cc(-c2ccc(Cl)cc2)cc(C(=O)CCC(=O)O)c1O [Example 118, 4-(4′-Chloro-5-cyano-4-hydroxy-biphenyl-3-yl)-4-oxo-butyric acid]
IC50 [1]: > 40000 nM
IC50 [2]: 160 nM

Compound: N#Cc1cc(-c2ccccc2Cl)cc(C(=O)CCC(=O)O)c1O [Example 119, 4-(2′-Chloro-5-cyano-4-hydroxy-biphenyl-3-yl)-4-oxo-butyric acid]
IC50 [1]: > 40000 nM
IC50 [2]: 280 nM

Compound: N#Cc1cc(-c2cccc(Cl)c2)cc(C(=O)CCC(=O)O)c1O [Example 120, 4-(3′-Chloro-5-cyano-4-hydroxy-biphenyl-3-yl)-4-oxo-butyric acid]
IC50 [1]: > 40000 nM
IC50 [2]: 150 nM

Next, values leading:

IC50 [1]: > 40000 nM
IC50 [2]: 710 nM
Compound: Cc1cccc(F)c1-c1cc(C#N)c(O)c(C(=O)CCC(=O)O)n1 [Example 88, 4-[4-Cyano-6-(2-fluoro-6-methyl-phenyl)-3-hydroxy-pyridin-2-yl]-4-oxo-butyric acid]

IC50 [1]: > 40000 nM
IC50 [2]: 310 nM
Compound: Cc1c(Cl)cccc1-c1cc(C#N)c(O)c(C(=O)CCC(=O)O)n1 [Example 89, 4-[6-(3-Chloro-2-methyl-phenyl)-4-cyano-3-hydroxy-pyridin-2-yl]-4-oxo-butyric acid]

IC50 [1]: > 40000 nM
IC50 [2]: 250 nM
Compound: Cc1cc(Cl)ccc1-c1cc(C#N)c(O)c(C(=O)CCC(=O)O)n1 [Example 90, 4-[6-(4-Chloro-2-methyl-phenyl)-4-cyano-3-hydroxy-pyridin-2-yl]-4-oxo-butyric acid]

IC50 [1]: > 40000 nM
IC50 [2]: 170 nM
Compound: Cc1ccc(Cl)cc1-c1cc(C#N)c(O)c(C(=O)CCC(=O)O)n1 [Example 91, 4-[6-(5-Chloro-2-methyl-phenyl)-4-cyano-3-hydroxy-pyridin-2-yl]-4-oxo-butyric acid]

IC50 [1]: > 40000 nM
IC50 [2]: 370 nM
Compound: Cc1cccc(-c2cc(C#N)c(O)c(C(=O)CCC(=O)O)n2)c1C [Example 92, 4-[4-Cyano-6-(2,3-dimethyl-phenyl)-3-hydroxy-pyridin-2-yl]-4-oxo-butyric acid]

IC50 [1]: > 40000 nM
IC50 [2]: 330 nM
Compound: Cc1ccc(-c2cc(C#N)c(O)c(C(=O)CCC(=O)O)n2)c(C)c1 [Example 93, 4-[4-Cyano-6-(2,4-dimethyl-phenyl)-3-hydroxy-pyridin-2-yl]-4-oxo-butyric acid]

IC50 [1]: > 40000 nM
IC50 [2]: 270 nM
Compound: Cc1ccc(C)c(-c2cc(C#N)c(O)c(C(=O)CCC(=O)O)n2)c1 [Example 94, 4-[4-Cyano-6-(2,5-dimethyl-phenyl)-3-hydroxy-pyridin-2-yl]-4-oxo-butyric acid]

IC50 [1]: > 40000 nM
IC50 [2]: 430 nM
Compound: Cc1ccc(C#N)cc1-c1cc(C#N)c(O)c(C(=O)CCC(=O)O)n1 [Example 100, 4-[4-Cyano-6-(5-cyano-2-methyl-phenyl)-3-hydroxy-pyridin-2-yl]-4-oxo-butyric acid]

IC50 [1]: > 40000 nM
IC50 [2]: 310 nM
Compound: Cc1cccc(-c2cc(C#N)c(O)c(C(=O)CCC(=O)O)n2)c1Cl [Example 101, 4-[6-(2-Chloro-3-methyl-phenyl)-4-cyano-3-hydroxy-pyridin-2-yl]-4-oxo-butyric acid]

IC50 [1]: > 40000 nM
IC50 [2]: 400 nM
Compound: Cc1ccc(Cl)c(-c2cc(C#N)c(O)c(C(=O)CCC(=O)O)n2)c1 [Example 102, 4-[6-(2-Chloro-5-methyl-phenyl)-4-cyano-3-hydroxy-pyridin-2-yl]-4-oxo-butyric acid]

IC50 [1]: > 40000 nM
IC50 [2]: 380 nM
Compound: N#Cc1cc(-c2cccc(C(F)(F)F)c2Cl)nc(C(=O)CCC(=O)O)c1O [Example 103, 4-[6-(2-Chloro-3-trifluoromethyl-phenyl)-4-cyano-3-hydroxy-pyridin-2-yl]-4-oxo-butyric acid]

IC50 [1]: > 40000 nM
IC50 [2]: 350 nM
Compound: COc1ccc(Cl)c(-c2cc(C#N)c(O)c(C(=O)CCC(=O)O)n2)c1 [Example 106, 4-[6-(2-Chloro-5-methoxy-phenyl)-4-cyano-3-hydroxy-pyridin-2-yl]-4-oxo-butyric acid]

IC50 [1]: > 40000 nM
IC50 [2]: 320 nM
Compound: N#Cc1cc(-c2cccc(F)c2Cl)nc(C(=O)CCC(=O)O)c1O [Example 107, 4-[6-(2-Chloro-3-fluoro-phenyl)-4-cyano-3-hydroxy-pyridin-2-yl]-4-oxo-butyric acid]

IC50 [1]: > 40000 nM
IC50 [2]: 270 nM
Compound: N#Cc1cc(-c2cc(F)ccc2Cl)nc(C(=O)CCC(=O)O)c1O [Example 108, 4-[6-(2-Chloro-5-fluoro-phenyl)-4-cyano-3-hydroxy-pyridin-2-yl]-4-oxo-butyric acid]

IC50 [1]: > 40000 nM
IC50 [2]: 270 nM
Compound: N#Cc1cc(-c2ccc(Cl)c3ccccc23)nc(C(=O)CCC(=O)O)c1O [Example 110, 4-[6-(4-Chloro-naphthalen-1-yl)-4-cyano-3-hydroxy-pyridin-2-yl]-4-oxo-butyric acid]

IC50 [1]: 10000 nM
IC50 [2]: 140 nM
Compound: COc1cccc(-c2cc(C#N)c(O)c(C(=O)CCC(=O)O)n2)c1Cl [Example 114, 4-[6-(2-Chloro-3-methoxy-phenyl)-4-cyano-3-hydroxy-pyridin-2-yl]-4-oxo-butyric acid]

IC50 [1]: > 40000 nM
IC50 [2]: 230 nM
Compound: N#Cc1cc(-c2ccc(C(F)(F)F)cc2Cl)nc(C(=O)CCC(=O)O)c1O [Example 115, 4-[6-(2-Chloro-4-trifluoromethyl-phenyl)-4-cyano-3-hydroxy-pyridin-2-yl]-4-oxo-butyric acid]
